Target: T1, human MR (Homo sapiens, UniProt P08235)
T1 construct: The full length human MR gene is cloned from a human kidney or human brain cDNA library; His tag from the pAcHLT vector (own knowledge); made in house; host or cells: Sf9 insect cells (baculovirus, pAcHLT transfer vector)
T1 sequence (P08235 1-984): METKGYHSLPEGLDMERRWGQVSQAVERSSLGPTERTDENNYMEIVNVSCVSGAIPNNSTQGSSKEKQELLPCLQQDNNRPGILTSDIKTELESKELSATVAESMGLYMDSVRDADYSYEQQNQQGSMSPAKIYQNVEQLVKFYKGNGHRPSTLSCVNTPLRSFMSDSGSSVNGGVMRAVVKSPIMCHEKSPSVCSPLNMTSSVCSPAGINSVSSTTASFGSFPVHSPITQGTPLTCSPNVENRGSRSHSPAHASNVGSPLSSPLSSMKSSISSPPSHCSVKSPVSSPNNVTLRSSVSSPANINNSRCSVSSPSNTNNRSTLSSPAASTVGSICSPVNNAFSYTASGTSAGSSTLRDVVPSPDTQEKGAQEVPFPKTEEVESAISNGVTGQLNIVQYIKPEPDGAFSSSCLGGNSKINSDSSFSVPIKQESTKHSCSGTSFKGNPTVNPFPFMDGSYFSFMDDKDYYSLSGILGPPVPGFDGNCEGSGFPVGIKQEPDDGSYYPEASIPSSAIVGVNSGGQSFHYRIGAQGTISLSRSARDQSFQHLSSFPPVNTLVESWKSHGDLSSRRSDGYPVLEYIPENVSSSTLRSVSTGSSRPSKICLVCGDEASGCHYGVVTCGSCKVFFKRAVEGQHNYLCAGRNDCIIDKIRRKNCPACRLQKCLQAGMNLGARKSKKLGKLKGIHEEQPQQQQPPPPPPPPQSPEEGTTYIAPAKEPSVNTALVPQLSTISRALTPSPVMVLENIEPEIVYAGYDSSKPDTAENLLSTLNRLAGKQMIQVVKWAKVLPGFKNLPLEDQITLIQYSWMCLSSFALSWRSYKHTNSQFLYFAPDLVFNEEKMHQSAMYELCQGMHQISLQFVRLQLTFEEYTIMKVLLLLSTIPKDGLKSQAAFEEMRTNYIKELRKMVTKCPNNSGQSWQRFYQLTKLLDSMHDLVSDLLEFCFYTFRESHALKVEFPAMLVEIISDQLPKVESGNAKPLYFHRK
Test: Mineralocorticoid Receptor Binding Assay ([3H]-aldosterone)
Settings: [3H]-aldosterone binding, human MR expressed in Sf9 cells; read-out: MR Ki
Procedure: All ligands, radioligands, solvents, and reagents employed in the binding assays are readily available from commercial sources, or can be readily synthesized by the ordinarily skilled artisan.
The full length human MR gene is cloned from a human kidney or human brain cDNA library. […] The PCR reaction is performed in a final volume of 50 μl containing about 1 μl of a 50× stock solution of polymerase; about 1 μl of a 50× stock solution of dNTP; about 5 μl of an appropriate PCR buffer; about 1 μl of each primer; about […] of a H. kidney or H. brain cDNA library; and about 36 μl of water. The reaction is allowed to denature for about 30 seconds at 95 degrees Celsius, anneal for about 30 seconds at 55 degrees Celsius, and extend for about 5 minutes at 72 degrees Celsius, the sequence being repeated for a total of about 35 cycles. […] To extract the cDNA product from the agarose gel, the QIAEX II Gel Extraction protocol (QIAGEN, Inc.) is employed according to the manufacturer's instructions. Following extraction, the MR cDNA is cloned into an appropriate cloning vector (Zero Blunt TOPO PCR Cloning Kit Invitrogen, Inc.) and a pAcHLT-baculovinis transfer vector (B.D./Pharminogen), then expressed in SF9 insect cells, essentially according to manufacturer's instructions. Sf9 cells are grown at a scale where gram quantity cell pellets are obtained for subsequent use in the MR binding assay. Harvested cell pellets are lysed by repeated freeze-thaw cycles (about 4) in a suitable lysis buffer then centrifuged at about 1×10^3 G (with the supernatant being saved for future assays).
MR binding assays are performed in a final total volume of about 250 μl containing about 20-25 μg of protein and 0.5 nM of [^3H]-aldosterone plus varying concentrations of test compound or vehicle. The assay binding buffer consists of 30 mM sodium molybdate, 30 mM of TRIS-HCl, 5 mM sodium phosphate, 5 mM sodium pyrophosphate, and about 10% glycerol, pH=7.5.
Incubations are carried out at 4 degrees Celsius with shaking for about 16 hours. 200 μl aliquots of each incubation are filtered onto Millipore HA 0.45 micron 96-well filter plates, pre-moistened with cold 30 mM TRIS-HCl. The filter plates are suctioned dry with vacuum and immediately washed 3× with cold 30 mM TRIS-HCl. The plates are then punched out and the amount of receptor-ligand complex is determined by liquid scintillation counting using 4 ml of Ready Protein Plus™ liquid scintillation cocktail.
IC50 values (defined as the concentration of test compound required to decrease [^3H]-aldosterone binding by 50%/o) are then determined.

Row | Compound | Ki [nM]
1 | CC(C)S(=O)(=O)Nc1ccc(C=C2c3ccccc3CCc3ccccc32)cc1 [Example 107, Propane-2-sulfonic acid [4-(10,11-dihydro-dibenzo[a,d]cyclohepten-5-ylidenemethyl)-phenyl]-amide] | < 500
2 | CSc1cccc(C=C2c3ccccc3CCc3ccccc32)c1 [Example 278, 5-(3-Methylsulfanyl-benzylidene)-10,11-dihydro-5H-dibenzo[a,d]cycloheptene] | < 500
3 | Cc1cccc2c1/C(=C/c1cccc(NS(C)(=O)=O)c1)c1ccccc1CC2 [Example 313] | < 500
4 | CS(=O)(=O)Nc1ccc2c(c1)CCc1ccccc1/C2=C/c1cccc(O)c1 [Example 337] | < 1000
5 | CS(=O)(=O)Nc1cccc(/C=C2/c3ccccc3CCc3cc(F)ccc32)c1 [Example 354] | < 500
6 | COc1ccc2c(c1)CCc1cc(Cl)ccc1/C2=C\c1cccc(NS(C)(=O)=O)c1 [Example 425] | < 500
7 | COc1ccc2c(c1)CCc1cc(Cl)ccc1/C2=C/c1cccc(NS(C)(=O)=O)c1 [Example 426] | < 500
8 | CS(=O)(=O)Nc1cccc(/C=C2\c3ccc(F)cc3CCc3ncccc32)c1 [Example 486, (E)-N-[3-(8-fluoro-10,11-dihydro-benzo[4,5]cyclohepta[1,2-b]pyridin-5-ylidenemethyl)-phenyl]-methanesulfonamide] | < 500
9 | CS(=O)(=O)Nc1cccc(C=C2c3ccccc3CCc3ccsc32)c1 [Example 493] | < 500
10 | CS(=O)(=O)Nc1cccc(/C=C2/c3ccccc3CCc3ccncc32)c1 [Example 513] | < 1000
11 | CC(=O)Nc1nc2c(s1)/C(=C\c1cccc(NS(C)(=O)=O)c1)c1ccccc1CC2 [Example 558] | < 500
12 | O=c1[nH]c2cc(/C=C3/c4ccc(F)cc4OCc4ncccc43)ccc2n1CCN1CCOCC1 [Example 618, (E)-5-(8-Fluoro-11H-10-oxa-1-aza-dibenzo[a,d]cyclohepten-5-ylidenemethyl)-1-(2-morpholin-4-yl-ethyl)-1,3-dihydro-benzoimidazol-2-one] | < 500
13 | O=[N+]([O-])c1cccc(/C=C2/c3ccccc3OCc3c(Cl)cccc32)c1 [Example 621] | < 500
14 | O=c1[nH]c2ccc(/C=C3/c4ccc(F)cc4OCc4ncccc43)cc2[nH]1 [Example 625] | < 500
15 | O=c1[nH]c2ccc(CC3c4ccccc4COc4cc(F)ccc43)cc2[nH]1 (centres unmarked) [Example 645] | < 500
16 | Cc1ccc2c(c1)/C(=C/c1cccc(NS(C)(=O)=O)c1)c1ccccc1CO2 [Example 678] | < 500
17 | CS(=O)(=O)Nc1cccc(C=C2c3ccccc3CSc3c(Cl)cc(Cl)cc32)c1 [Example 697] | < 500
18 | Cn1c(=O)n(C)c2cc(/C=C3\c4ccccc4COc4cc(F)ccc43)ccc21 [Example 717] | < 500
19 | O=c1[nH]c2cc(/C=C3\c4ccc(F)cc4OCc4ncsc43)ccc2n1CCN1CCOCC1 [Example 719] | < 500
20 | CS(=O)(=O)Nc1cccc(C=C2c3ccccc3CSc3c(Cl)cccc32)c1 [Example 720] | < 500
21 | COCC(=C1c2ccccc2CCc2cc(Cl)ccc21)c1cccc(NS(C)(=O)=O)c1 [Example 756, N-{3-[1-(2-Chloro-10,11-dihydro-dibenzo[a,d]cyclohepten-5-ylidene)-2-methoxy-ethyl]-phenyl}-methanesulfonamide] | < 500
22 | C/C(=C1\c2ccccc2CCc2cc(C)ccc21)c1cccc(NS(C)(=O)=O)c1 [Example 781] | < 500
23 | C/C(=C1/c2ccccc2CCc2cc(C)ccc21)c1cccc(NS(C)(=O)=O)c1 [Example 782] | < 500
24 | C/C(=C1\c2ccccc2COc2cc(Cl)ccc21)c1cccc(NS(C)(=O)=O)c1 [Example 791] | < 500
25 | C/C(=C1/c2ccccc2COc2cc(Cl)ccc21)c1cccc(NS(C)(=O)=O)c1 [Example 792] | < 500
26 | CCOc1ccc2c(c1)OCc1ccccc1/C2=C(\C)c1cccc(NS(C)(=O)=O)c1 [Example 815] | < 500
27 | CCCCOc1ccc2c(c1)OCc1ccccc1/C2=C(/C)c1cccc(NS(C)(=O)=O)c1 [Example 816] | < 500
28 | C/C(=C1\c2ccccc2CCc2cc(OCC3CC3)ccc21)c1cccc(NS(C)(=O)=O)c1 [Example 825] | < 500
29 | C/C(=C1/c2ccccc2CCc2cc(OCC3CC3)ccc21)c1cccc(NS(C)(=O)=O)c1 [Example 826] | < 500
